Measured values: patent US20200390764A1, “PHARMACEUTICAL FORMULATIONS, PROCESSES FOR PREPARATION, AND METHODS OF USE” (Sunesis Pharmaceuticals, Inc., priority 2017, published 2020)
In brackets after ≈: the same amount, converted by molar mass.

Experiments:
[1] = Aqueous solubility; assay type: physicochemical
Description: The present invention provides a process for the preparation of a pharmaceutical composition comprising active compounds as described herein, with improved absorption. […] According to the process of the present invention, it is possible to provide, from an active compound, a formulation in which the dissolution rate and oral bioavailability of the drug are high. Furthermore, the solid dispersion extrudates of the present invention have good stability at room temperature.
To overcome the inherent hurdles posed by this class of drugs, three alternative formulation approaches were screened: lipid-based formulation, nano-suspension, and solid dispersion via hot melt extrusion (HME).

[2] = test system: MV4-11 xenografts; test: In vivo pathway modulation in MV4-11 xenografts; conditions: 4 hours and 24 hours after a single oral dose, MV4-11 xenografts in mice
Experimental: Pathway modulation was assessed in vivo using MV4-11 xenografts in mice. […] Efficacy was assessed by 21-day dosing in MV4-11 xenografts.

[3] = Oral pharmacokinetics in mice; assay type: in vivo; conditions: for Tmax / bioavailability: mouse, in vivo; for bioavailability: read-out: oral bioavailability % F
[4] = test system: phosphorylation of PDK1, RSK2, and AKT; test: Pathway modulation in cells: inhibition of phosphorylation; assay type: cell-based
Description: (§1) The compounds bind deep in the adaptive (allosteric) pocket, causing a distortion in the N-terminal domain thereby perturbing the PIF-pocket and thus negatively modulating PI-independent substrate binding. […] Anti-proliferative activity correlated with pathway modulation assessed by inhibition of phosphorylation of PDK1, RSK2, and AKT.

[5] = biological target: T1, PDK1 (Homo sapiens, UniProt O15530); test: PDK1 biochemical potency (binding of the inactive conformation); conditions: compared to the PDK1 inhibitor GSK2334470
T1 sequence (O15530 1-556): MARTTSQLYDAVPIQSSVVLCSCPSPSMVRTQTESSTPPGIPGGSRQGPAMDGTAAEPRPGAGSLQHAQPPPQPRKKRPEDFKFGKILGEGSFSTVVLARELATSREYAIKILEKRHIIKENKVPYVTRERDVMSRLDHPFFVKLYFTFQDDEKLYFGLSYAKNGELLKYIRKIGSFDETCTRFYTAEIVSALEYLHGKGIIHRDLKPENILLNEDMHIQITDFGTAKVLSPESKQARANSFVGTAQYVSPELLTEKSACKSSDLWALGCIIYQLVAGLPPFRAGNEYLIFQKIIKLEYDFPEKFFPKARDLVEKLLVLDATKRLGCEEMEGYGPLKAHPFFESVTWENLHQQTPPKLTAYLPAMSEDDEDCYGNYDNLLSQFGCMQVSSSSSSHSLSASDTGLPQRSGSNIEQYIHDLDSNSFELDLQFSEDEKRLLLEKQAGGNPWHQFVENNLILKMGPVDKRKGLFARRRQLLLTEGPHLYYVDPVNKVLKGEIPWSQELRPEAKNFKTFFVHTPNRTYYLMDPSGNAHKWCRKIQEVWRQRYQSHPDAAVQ
Description: as §1

[6] = test system: cell lines derived from hematologic cancers; test: 72-hour viability assays; assay type: cell-based
Description: as §1

[7] = test system: cell lines derived from hematologic cancers; test: Apoptosis induction in cancer cell lines; assay type: cell-based; conditions: after 24 hours
Description: as §1

[8] = test system: cell lines derived from hematologic cancers; test: Anti-proliferative activity in a panel of hematologic cancer cell lines; assay type: cell-based; conditions: panel of more than 20 cell lines: AML, multiple myeloma, DLBCL, Mantle cell lymphoma
Description: as §1

solubility ([1]; aqueous buffer, over the physiological pH range) [µg/mL]	solubility ([1]; aqueous medium (not specified further)) [µg/mL]	half-life [3]	Tmax [3] [h]	bioavailability [3] [%]	biochemical potency compared to GSK2334470 [5]	EC50 [8] [nM]	Compound	pathway modulation in vivo [2]	inhibition of PDK1 phosphorylation, fold more after 24 hours than 4 hours ([4]; 24 hours vs 4 hours)	fold more potent than GSK2334470 at inhibiting PDK1 and RSK2 phosphorylation ([4]; all cell lines tested)	fold more potent than GSK2334470 in viability assays [6]	apoptosis [7]
< 0.1	0.1 (≈ 0.19 µM)	long half-life	4 to 8	> 40	–	–	C[C@H](NC(=O)c1nc(C#N)cnc1NCc1ccc(-c2cnc3[nH]nc(N)c3n2)cc1)c1ccc(F)c(F)c1 (stereo in doubt) [Compound 1, 3-[4-(3-Amino-1H-pyrazolo[3,4-b]pyrazin-5-yl)-benzylamino]-6-cyano-pyrazine-2-carboxylic acid [1-(3,4-difluoro-phenyl)-ethyl]-amide]	Potent pathway modulation	–	–	–	–
–	–	long half-life	4 to 8	> 40	comparable biochemical potency	3 to 900	CNc1n[nH]c2ncc(-c3ccc(CNc4ncc(C#N)nc4C(=O)N[C@@H](C)c4ccc(F)c(F)c4)cc3)cc12 [Compound 2, 6-Cyano-3-[4-(3-methylamino-1H-pyrazolo[3,4-b]pyridin-5-yl)-benzylamino]-pyrazine-2-carboxylic acid [1-(3,4-difluoro-phenyl)-ethyl]-amide]	Potent pathway modulation	2-5 fold	10- to 30 fold	at least 10 fold	substantial apoptosis
